Results taken from ChEMBL document CHEMBL4261568, “Pyrimidine Nucleotides Containing a (S)-Methanocarba Ring as P2Y6 Receptor Agonists” (Medchemcomm, 2017).
Calls of active or inactive are those of the source. The calls are words filed in the database; no cut-off is given here.

Experiments:
[1] = target: P2Y purinoceptor 6 (Homo sapiens, UniProt Q15077); test: Agonist activity at human P2Y6 receptor expressed in human 1321N1 cells assessed as induction of calcium mobilization by FLIPR method; assay type: functional, cell-based
Sequence of P2Y purinoceptor 6 (Q15077 whole entry): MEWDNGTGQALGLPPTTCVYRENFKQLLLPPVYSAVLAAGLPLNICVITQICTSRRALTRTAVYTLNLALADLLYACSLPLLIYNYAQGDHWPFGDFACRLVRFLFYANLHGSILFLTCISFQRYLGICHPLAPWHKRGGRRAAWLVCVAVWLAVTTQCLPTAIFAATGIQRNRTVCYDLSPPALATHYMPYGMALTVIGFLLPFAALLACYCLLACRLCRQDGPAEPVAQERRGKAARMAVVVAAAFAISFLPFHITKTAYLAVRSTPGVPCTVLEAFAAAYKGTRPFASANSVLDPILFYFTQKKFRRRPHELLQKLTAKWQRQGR

[2] = target: P2Y purinoceptor 4 (Homo sapiens) (UniProt P51582); test: Antagonist activity at human P2Y4 receptor expressed in human 1321N1 cells assessed as inhibition of calcium mobilization at 10 uM measured over 2 mins by Fluo-4 dye-based FLIPR method relative to control; assay type: functional, cell-based
Sequence of P2Y purinoceptor 4 (Homo sapiens) (P51582 whole entry): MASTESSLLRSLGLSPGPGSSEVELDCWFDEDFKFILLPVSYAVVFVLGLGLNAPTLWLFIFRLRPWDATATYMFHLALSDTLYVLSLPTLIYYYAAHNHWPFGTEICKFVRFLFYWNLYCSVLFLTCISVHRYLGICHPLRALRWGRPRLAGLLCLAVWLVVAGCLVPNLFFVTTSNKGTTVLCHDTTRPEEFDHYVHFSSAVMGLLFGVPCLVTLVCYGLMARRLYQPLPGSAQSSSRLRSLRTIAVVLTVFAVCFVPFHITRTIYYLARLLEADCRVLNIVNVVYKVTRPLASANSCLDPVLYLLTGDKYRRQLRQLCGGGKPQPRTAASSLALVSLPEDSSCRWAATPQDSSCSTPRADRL

[3] = target: P2Y purinoceptor 4 (Homo sapiens) (UniProt P51582); test: Agonist activity at human P2Y4 receptor expressed in human 1321N1 cells assessed as induction of calcium mobilization at 10 uM measured over 2 mins by Fluo-4 dye-based FLIPR method relative to control; assay type: functional, cell-based
[4] = target: T1, P2Y purinoceptor 11 (Homo sapiens) (UniProt Q96G91); test: Antagonist activity at human P2Y11 receptor expressed in human 1321N1 cells assessed as inhibition of calcium mobilization at 10 uM measured over 2 mins by Fluo-4 dye-based FLIPR method relative to control; assay type: functional, cell-based
T1 sequence (whole entry): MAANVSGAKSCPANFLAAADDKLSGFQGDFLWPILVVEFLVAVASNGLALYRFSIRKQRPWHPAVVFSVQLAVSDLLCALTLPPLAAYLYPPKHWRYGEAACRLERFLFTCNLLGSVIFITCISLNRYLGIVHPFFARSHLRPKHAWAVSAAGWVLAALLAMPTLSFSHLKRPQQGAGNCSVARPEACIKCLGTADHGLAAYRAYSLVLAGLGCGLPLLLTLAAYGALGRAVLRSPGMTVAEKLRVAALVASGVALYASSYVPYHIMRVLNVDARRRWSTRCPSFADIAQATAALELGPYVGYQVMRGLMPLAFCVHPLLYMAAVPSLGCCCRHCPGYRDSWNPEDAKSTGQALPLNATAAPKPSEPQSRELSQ

[5] = target: P2Y purinoceptor 1 (Homo sapiens) (UniProt P47900); test: Agonist activity at human P2Y1 receptor expressed in human 1321N1 cells assessed as induction of calcium mobilization at 10 uM measured over 2 mins by Fluo-4 dye-based FLIPR method relative to control; assay type: functional, cell-based
Sequence of P2Y purinoceptor 1 (Homo sapiens) (P47900 whole entry): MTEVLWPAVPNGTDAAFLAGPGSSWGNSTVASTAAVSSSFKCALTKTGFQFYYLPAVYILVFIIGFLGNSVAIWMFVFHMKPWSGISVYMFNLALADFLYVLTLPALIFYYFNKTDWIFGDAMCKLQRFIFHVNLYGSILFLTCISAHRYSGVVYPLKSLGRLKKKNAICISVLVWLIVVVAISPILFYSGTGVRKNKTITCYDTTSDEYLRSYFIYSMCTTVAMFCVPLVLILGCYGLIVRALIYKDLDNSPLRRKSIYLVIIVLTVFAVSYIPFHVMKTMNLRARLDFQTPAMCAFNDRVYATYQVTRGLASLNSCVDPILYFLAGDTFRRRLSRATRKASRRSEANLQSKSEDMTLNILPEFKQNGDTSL

[6] = target: P2Y purinoceptor 2 (Homo sapiens) (UniProt P41231); test: Antagonist activity at human P2Y2 receptor expressed in human 1321N1 cells assessed as inhibition of calcium mobilization at 10 uM measured over 2 mins by Fluo-4 dye-based FLIPR method relative to control; assay type: functional, cell-based
Sequence of P2Y purinoceptor 2 (Homo sapiens) (P41231 whole entry): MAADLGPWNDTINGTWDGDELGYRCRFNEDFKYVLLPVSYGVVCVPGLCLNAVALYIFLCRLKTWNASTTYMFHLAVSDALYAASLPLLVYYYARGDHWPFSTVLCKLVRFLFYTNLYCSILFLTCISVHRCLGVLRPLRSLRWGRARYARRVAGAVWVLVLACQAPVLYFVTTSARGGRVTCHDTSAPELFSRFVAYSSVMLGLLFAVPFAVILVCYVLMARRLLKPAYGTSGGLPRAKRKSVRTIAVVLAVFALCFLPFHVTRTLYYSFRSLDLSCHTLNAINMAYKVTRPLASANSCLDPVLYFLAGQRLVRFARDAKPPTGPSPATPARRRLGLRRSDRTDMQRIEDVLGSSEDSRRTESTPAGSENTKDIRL

[7] = target: P2Y purinoceptor 1 (Homo sapiens) (UniProt P47900); test: Antagonist activity at human P2Y1 receptor expressed in human 1321N1 cells assessed as inhibition of calcium mobilization at 10 uM measured over 2 mins by Fluo-4 dye-based FLIPR method relative to control; assay type: functional, cell-based
[8] = target: P2Y purinoceptor 2 (Homo sapiens) (UniProt P41231); test: Agonist activity at human P2Y2 receptor expressed in human 1321N1 cells assessed as induction of calcium mobilization at 10 uM measured over 2 mins by Fluo-4 dye-based FLIPR method relative to control; assay type: functional, cell-based
[9] = target: T2, P2Y purinoceptor 14 (Homo sapiens) (UniProt Q15391); test: Agonist activity at human P2Y14 receptor expressed in human 1321N1 cells assessed as induction of calcium mobilization at 10 uM measured over 2 mins by Fluo-4 dye-based FLIPR method relative to control; assay type: functional, cell-based
T2 sequence (whole entry): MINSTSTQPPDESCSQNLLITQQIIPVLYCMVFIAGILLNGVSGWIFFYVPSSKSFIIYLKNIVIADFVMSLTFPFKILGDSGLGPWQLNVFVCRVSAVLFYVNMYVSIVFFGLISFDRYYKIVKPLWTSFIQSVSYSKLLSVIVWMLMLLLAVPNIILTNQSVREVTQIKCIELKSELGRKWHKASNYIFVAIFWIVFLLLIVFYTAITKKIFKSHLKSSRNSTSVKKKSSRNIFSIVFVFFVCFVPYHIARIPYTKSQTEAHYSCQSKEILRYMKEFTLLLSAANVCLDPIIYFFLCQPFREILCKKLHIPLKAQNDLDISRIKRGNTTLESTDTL

[10] = Half life in human 1321N1 cell membranes; assay type: ADME, cell-based

O=c1[nH]/c(=N\OCc2ccccc2)ccn1[C@]12C[C@H]1[C@H](COP(=O)(O)CP(=O)(O)O)[C@@H](O)[C@H]2O
EC50 [1]: 4.96 µM

CO/N=c1/ccn([C@]23C[C@H]2[C@H](COP(=O)(O)OP(=O)(O)OP(=O)(O)OC[C@@H]2[C@@H](O)[C@@H](O)[C@@]4(n5ccc(=O)[nH]c5=O)C[C@@H]24)[C@@H](O)[C@H]3O)c(=O)[nH]1
EC50 [1]: 6.9 µM

O=c1[nH]/c(=N\OCc2ccccc2)ccn1[C@]12C[C@H]1[C@H](COP(=O)(O)OP(=O)(O)O)[C@@H](O)[C@H]2O
EC50 [1]: 0.793 µM

O=c1[nH]c(=O)n([C@@H]2O[C@H](COP(=O)(O)OP(=O)(O)O)[C@@H](O)[C@H]2O)cc1I
EC50 [1]: 0.0491 µM

O=c1[nH]c(=O)n([C@]23C[C@H]2[C@H](COP(=O)(O)OP(=O)(O)O)[C@@H](O)[C@H]3O)cc1I
EC50 [1]: 0.44 µM

CO/N=c1/ccn([C@]23C[C@H]2[C@H](COP(=O)(O)OP(=O)(O)OP(=O)(O)OC[C@H]2O[C@@H](n4ccc(=O)[nH]c4=O)[C@H](O)[C@@H]2O)[C@@H](O)[C@H]3O)c(=O)[nH]1
Imax [2]: 25% | %max [3]: 10.2% | Imax [4]: 0.1% | %max [5]: -0.6% | Imax [6]: 40.3% | EC50 [1]: 4.12 µM | Imax [7]: 56.8% | %max [8]: 16%

O=c1ccn([C@@H]2O[C@H](COP(=O)(O)OP(=O)(O)O)[C@@H](O)[C@H]2O)c(=O)[nH]1
EC50 [1]: 0.132 µM

O=c1ccn([C@]23C[C@H]2[C@H](COP(=O)(O)OP(=O)(O)O)[C@@H](O)[C@H]3O)c(=O)[nH]1
Activity [9]: inactive | EC50 [1]: 0.438 µM

CO/N=c1/ccn([C@@H]2O[C@H](COP(=O)(O)OP(=O)(O)O)[C@@H](O)[C@H]2O)c(=O)[nH]1
half-life [10]: 55 min

CCN(CC)CC.CCN(CC)CC.CO/N=c1/ccn([C@@H]2O[C@H](COP(=O)(O)OP(=O)(O)OP(=O)(O)OC[C@H]3O[C@@H](n4ccc(=O)[nH]c4=O)[C@H](O)[C@@H]3O)[C@@H](O)[C@H]2O)c(=O)[nH]1
half-life [10]: 23 min | EC50 [1]: 1.2 µM

O=c1[nH]/c(=N\OCc2ccccc2)ccn1[C@@H]1O[C@H](COP(=O)(O)CP(=O)(O)O)[C@@H](O)[C@H]1O
EC50 [1]: 2.36 µM

CO/N=c1/ccn([C@@H]2O[C@H](COP(=O)(O)CP(=O)(O)O)[C@@H](O)[C@H]2O)c(=O)[nH]1
EC50 [1]: 0.42 µM

CO/N=c1/ccn([C@]23C[C@H]2[C@H](COP(=O)(O)OP(=O)(O)OP(=O)(O)OC[C@@H]2[C@@H](O)[C@@H](O)[C@@]4(n5cc/c(=N/OC)[nH]c5=O)C[C@@H]24)[C@@H](O)[C@H]3O)c(=O)[nH]1
EC50 [1]: 5.49 µM

CO/N=c1/ccn([C@]23C[C@H]2[C@H](COP(=O)(O)CP(=O)(O)O)[C@@H](O)[C@H]3O)c(=O)[nH]1
EC50 [1]: 6.29 µM

CO/N=c1/ccn([C@]23C[C@H]2[C@H](COP(=O)(O)OP(=O)(O)OP(=O)(O)OC[C@@]24C[C@@H]2[C@@H](n2ccc(=O)[nH]c2=O)[C@H](O)[C@@H]4O)[C@@H](O)[C@H]3O)c(=O)[nH]1
EC50 [1]: 0.705 µM

CO/N=c1/ccn([C@]23C[C@H]2[C@H](COP(=O)(O)OP(=O)(O)O)[C@@H](O)[C@H]3O)c(=O)[nH]1
Imax [2]: 10% | %max [3]: 2.2% | Imax [4]: -3.9% | %max [5]: -0.5% | Imax [6]: 16.8% | EC50 [1]: 0.493 µM | Imax [7]: 17% | %max [8]: 8.9%

O=c1ccn([C@]23C[C@H]2[C@H](COP(=O)(O)CP(=O)(O)O)[C@@H](O)[C@H]3O)c(=O)[nH]1
EC50 [1]: 47.1 µM
